Test results: patent US6080739A (priority 1996, dated 2000)
Read-outs that look alike come from different tables or passages of the source.

How the values were obtained:
[1] = system: MCF7-ADR
[2] = system: MCF-7; assay: cells; assay type: cell-based; conditions: Homo sapiens, MCF7, read-out: IC50 MCF-7
[3] = system: MCF7-ADR; assay: cells; conditions: Homo sapiens, NCI/ADR-RES, read-out: IC50 MCF7-ADR

COc1cc2c(c(OC)c1OC)-c1ccc(OC)c(=O)cc1[C@@H](NC(C)=O)CC2 [Colchicine]
MCF7-ADR/MCF7 ([1]; ratio of IC50 resistant to normal cells): 6,600

COc1cc2c(c(OC)c1OC)-c1ccc(SC)c(=O)cc1C1=Nc3cc(C(C)(C)C)cc(C(C)(C)C)c3OC1C2 (stereo not shown) [Compound IIa]
IC50 [2]: 17 nM

COc1cc2c(c(OC)c1OC)-c1ccc(SC)c(=O)cc1C(=O)CC2 [Compound Ia, Thiocolchicone]
IC50 [2]: 6.2 nM

COc1cc2c(c(OC)c1OC)-c1ccc(OC)c(=O)cc1C(=O)CC2 [Compound Ib, Colchicone]
IC50 [2]: 23 nM

CC(=O)O[C@H]1C(=O)[C@@]2(C)[C@H]([C@H](OC(=O)c3ccccc3)[C@]3(O)C[C@H](OC(=O)[C@H](O)[C@@H](NC(=O)c4ccccc4)c4ccccc4)C(C)=C1C3(C)C)[C@]1(OC(C)=O)CO[C@@H]1C[C@@H]2O [Taxol]
IC50 [2]: 2.3 nM
MCF7-ADR/MCF7 ([1]; human, mcf7-adr / mcf7 cells): 1,043
IC50 [3]: 2400 nM
